Assay [1] is described as follows: Carboxyfluorescein dye leakage from LUVs, Aβ40. It counts as biochemical. As to the method: Smaller Aβ oligomers or protofibrils are more toxic than mature fibrils in AD progression due to their ability to disrupt membranes via pore formation.[37,38] […] To evaluate this, we performed a membrane leakage assay on carboxyfluorescein-loaded large unilamellar vesicles (LUVs).[38] The time required for Aβ40 oligomer and mature fibril formation is 12 h and 72 h, respectively (inferred from ThT assay, black curve, Fig. 2a), which directed us to set up the LUV leakage assay. […] The fluorescence intensity of complete dye release from LUVs by Triton X-100 served as a positive control (100% leakage), and untreated dye-loaded LUVs assisted as a negative control. […]
e. Time-resolved photoluminescence (TRPL) […]
μM. Then, 600 μL of peptide sample was placed in a 1 mL fluorescence cuvette and measure the excited state lifetime on Eddinburg FSP920 Instrument. f. […]
Prior to the analysis, samples were filtered through 0.45 µm PVDF membrane. […] For each sample, the analyses were recorded three times with 11 sub-runs using the multimodal mode. The Z-average diameter was calculated from the correlation function using Malvern technology software. g. […]
h. Carboxyfluorescein dye loaded Large Unilamellar Vesicles (LUVs) Leakage Study For leakage study, peptide and lipids were taken in 1:20 molar ratios, and the dye release was monitored by fluorescence emission. […]

For the next assay, the system named is SH-SY5Y cells. Description: Intracellular Ca2+ (Fura-2AM). It counts as cell-based, human. Conditions: Aβ40 10 μM, compared to untreated cells. From the text:
Condensed or fragmented nuclear bodies characterize the distinctive nature of apoptotic cells. […] Dyshomeostasis of Ca^2+ is also responsible for the increased production of Aβ peptides, by which a degenerative feed-forward cycle is activated, resulting in accelerated apoptosis, synaptic dysfunction, and memory impairment.[49] […]
e. Measurement of intracellular calcium (Ca 2+)
Ca2+sensitive dye Fura-2AM was used to measure free intracellular Ca2+level in SH-SY5Y cell suspension by the previously described method.12 Following treatment with the respective drug, Fura-2 AM (Cayman, USA) at a concentration of 5 µM was added to the culture medium and incubated at 37°C for 45 min. Next, Krebs-Ringer-HEPES (KRH) buffer (135mM NaCl, 5mM KCl, 1mM MgSO4, 0.4mM KH2PO4, 1mM CaCl2, 5.5mM glucose, 20mM HEPES, pH 7.4) was used to wash each plate twice containing (1×10^6cells). Fluorescent microplate reader (FLX 800, Biotek, USA) was used to measure the fluorescence intensity with an excitation and emission spectra of […], respectively. Results are Mean±SEM of quadruplicate measurements from three separate experiments and expressed in the increase in percent relative fluorescent unit (RFU) relative to the baseline reading.
Western blot analysis was performed to measure Bax, Bcl-2, cleaved Caspase 9 and cleaved Caspase 3, pro and anti-apoptotic proteins expression. […]

On to “Aβ40: commercially available Aβ40 peptide”, for which the “dye leakage from LUVs” value is on record as ~40% in assay [1] (Aβ40 oligomers (12 h aged), until 100 min, untreated LUVs ∼9%, Triton X-100 = 100%) and ~15% in assay [1] (mature Aβ40 fibrils (72 h), 100 min, peptide:lipid 1:20). For the same substance, the “intracellular Ca2+ level, Aβ40 alone” value in the assay on SH-SY5Y cells was “significantly elevated intracellular Ca^2+ levels”.
